Values quoted from earlier work as cited in patent US20050271657A1, “Intermittent treatment regime for organ failure” (Australian Stem Cell Centre Ltd., priority 2004, published 2005).

Experiments:
[1] = test system: A II production from angiotensin I (A I)
[2] = renal transplant patients

For `CCOC(=O)[C@H](CCc1ccccc1)N[C@@H](C)C(=O)N1CCC[C@H]1C(=O)O` [Enalapril, enalapril], the “blockage of A II production from angiotensin I at specific glomerular sites” value [1] is listed as “blockage” and the anemia [2] is listed as “reversible anemia”.
